Measurements from ChEMBL document CHEMBL5365549, “Neurosteroids and Postpartum Depression: The Mechanism, Efficacy, and Approval of Brexanolone and Zurzuvae” (ACS Med Chem Lett, 2023).

Assays:
[1] = Inhibition of rat brain cortical membrane GABA alpha receptor by TBPS binding assay; format: cell membranes, Cortex
[2] = AUC (0 to t) in human at 30 mg administered as formulated fasted capsules; format: ADME; design: dose 30 mg; conditions: in vivo, po
[3] = Cmax in human at 30 mg administered as formulated fasted capsules; format: ADME; design: dose 30 mg; conditions: in vivo, po
[4] = AUC (0 to infinity) in human at 30 mg administered as formulated fasted capsules; format: ADME; design: dose 30 mg; conditions: in vivo, po
[5] = AUC (0 to t) in human at 30 mg administered as formulated fed (high-fat meal) capsules; format: ADME; design: dose 30 mg; conditions: in vivo, po
[6] = AUC (0 to infinity) in human at 30 mg administered as formulated fed (high-fat meal) capsules; format: ADME; design: dose 30 mg; conditions: in vivo, po
[7] = Cmax in human at 30 mg administered as formulated fed (high-fat meal) capsules; format: ADME; design: dose 30 mg; conditions: in vivo, po

SMILES | IC50 [1] [nM] | further results
COC[C@@]1(O)CC[C@H]2[C@H](CC[C@@H]3[C@@H]2CC[C@]2(C)[C@@H](C(=O)CO)CC[C@@H]32)C1 | 170 | –
C[C@@]1(O)CC[C@H]2[C@H](CC[C@@H]3[C@@H]2CC[C@]2(C)[C@@H](C(=O)CO)CC[C@@H]32)C1 | 86 | AUC(0-t) [2]: 530 ng·h/mL; Cmax [3]: 21.8 ng/mL; AUC(0-inf) [4]: 640 ng·h/mL; AUC(0-t) [5]: 838 ng·h/mL; AUC(0-inf) [6]: 1010 ng·h/mL; Cmax [7]: 63.1 ng/mL
COC[C@@]1(O)CC[C@H]2[C@@H](CC[C@@H]3[C@@H]2CC[C@]2(C)[C@@H](C(=O)CO)CC[C@@H]32)C1 | 94 | –
CC(=O)[C@H]1CC[C@H]2[C@@H]3CC[C@H]4C[C@](C)(O)CC[C@@H]4[C@H]3CC[C@]12C | 93 | –
COC[C@@]1(O)CC[C@H]2[C@H](CC[C@@H]3[C@@H]2CC[C@]2(C)[C@@H](C(C)=O)CC[C@@H]32)C1 | 41 | –
CC(=O)[C@H]1CC[C@H]2[C@@H]3CC[C@@H]4C[C@@](O)(C(F)F)CC[C@@H]4[C@H]3CC[C@]12C | 33 | –
